Source: patent US7351722B2, “Use of Mangafodipir for treating oxidative stress effects” (Universite Rene Descartes (Paris V), priority 2001, dated 2008)
Like-named read-outs stand apart in the source and are kept apart here.

How the values were obtained:
[1] = spectrophotometry at 340 nm for 5 minutes
Description: The glutathione reductase activity was assayed using the kit: “Glutathione reductase assay kit” marketed by the company Calbiochem. The reaction mixture is analyzed by spectrophotometry at 340 nm for 5 minutes.

[2] = system: acetaminophen-induced acute hepatic failure; conditions: 500 mg/kg APAP, ASAT after 12 hours
Description: In a second series of experiments, one group of mice was given a dose of 500 mg/kg of acetaminophen; a second group was given the same dose of acetaminophen, and a dose of 10 mg/kg of Mangafodipir administered 2 h before the acetaminophen; a third group of animals was given the same dose of acetaminophen, and a dose of 10 mg/kg of MnTBAP, and a fourth group of animals was given the same dose of acetaminophen, and a dose of 10 mg/kg of CuDIPS. The ASAT serum transaminases are assayed 12 hours after the administration of acetaminophen.

[3] = system: Hep 3B human hepatic cell line; conditions: 62.5, 125, 250 μg/ml, 1 h before X/XO, MTT after 12 h
Description: The cells were seeded in a 96-well culture plate, in a proportion of 5×10^4 cells per well, in a final volume of 50 μl.
One hundred μl of Mangafodipir solution at various concentrations (62.5, 125, 250 μg/ml) were deposited into each well (three wells per concentration tested).

[4] = 75.7 μg of Mangafodipir, 10 mM H2O2, pH 7.4
Description: The catalase activity was assayed according to the method described by AEBI [Methods Enzymol., 105, 121-126, (1984)]. The decrease in optical density (OD) at 240 nm of a solution of 10 mM H2O2 in phosphate buffer (50 mM of Na2HPO4/KH2PO4, 0.1 mM EDTA, pH 7.4) was measured in the presence of 75.7 μg of Mangafodipir or, by way of reference, in the presence of 1 unit of bovine catalase.

[5] = system: acetaminophen-induced acute hepatic failure; experiment: Animal survival in acetaminophen-induced acute hepatic failure, comparison of Mangafodipir, MnTBAP and CuDIPS (Example 7); assay type: in vivo, mice; conditions: for number of surviving animals: 10 mg/kg bolus 2 h before 1000 mg/kg APAP, n = 12
Description: The Mangafodipir, the MnTBAP or the CuDIPS are administered in the form of a bolus, in the preventive capacity, 2 hours before the acetaminophen.
Animal survival is monitored for 24 hours after the administration of acetaminophen.

[6] = system: acetaminophen-induced acute hepatic failure; conditions: for survival rate: 24 hours after APAP 1000 mg/kg; for number of surviving animals: n = 12
Description: Intraperitoneal injection of acetaminophen into mice induces severe hepatotoxicity, the degree of which can be evaluated by animal survival and macroscopic and microscopic examination of the livers.
The Mangafodipir (marketed under the name […]™ by Nicomed-Amersham) is administered in the form of a bolus, intraperitoneally.
The acetaminophen (APAP), in solution at 100 mg/ml in PBS, at pH 7.4, is administered intraperitoneally.
In a first series of experiments, one group of mice was given a dose of 1000 mg/kg of acetaminophen; a second group was given a dose of 1000 mg/kg of acetaminophen, and a dose of 10 mg/kg of Mangafodipir administered either 2 h before the acetaminophen, or 6 h after; a control group was given Mangafodipir alone (10 mg/kg), or PBS alone.
Animal survival was monitored for 24 hours after the administration of acetaminophen.

[7] = Description: The SOD activity of a chemical compound can be determined by the NBT (nitro blue tetrazolium) reduction method according to the technique described by Beauchamp and Fridovich [Anal. Biochem., 44(1), 276-87, (1971)].
The test is carried out at 25° C. in a final volume of buffer of 0.8 ml (50 mM TRIS/HCl, pH 7.6), containing 22 μM of xanthine, 500 U/ml of catalase and 0.2 U/ml of xanthine oxidase. The reduction of NBT, in the presence of 1.5 μg of Mangafodipir or, as a control, in the absence of Mangafodipir, is measured every 30 seconds for 5 minutes. One SOD unit (U SOD) is defined by the amount of enzyme capable of inhibiting the NBT reduction rate by 50%.

[8] = system: acetaminophen-induced acute hepatic failure; conditions: mice given acetaminophen
From the text: In each of the groups, the livers of several animals were removed in order to perform a histological study.

With “Manganese dipyridoxyl phosphate [Mangafodipir]” the glutathione reductase activity [1] was 19.9±1.75 mU glutathione reductase per milligram of Mangafodipir, the “transaminase activities, APAP500 alone relative to Mangafodipir pretreatment” value ([2]; 10 mg/kg 2 h before) was 10 times and the “effect on transaminase activities” value ([2]; 10 mg/kg) was “decreases the transaminase activities”. For the same substance, the “mortality of hepatic cells under superoxide anion-mediated oxidative stress” value [3] was “prevents the mortality of hepatic cells”, the catalase activity [4] was 2 U catalase per milligram of Mangafodipir and the “number of surviving animals” value ([5]; time 0 h) was 12. The “number of surviving animals” value ([5]; time 6 h) was 12, the “number of surviving animals” value ([5]; time 8 h) was 12 and the “number of surviving animals” value ([5]; time 9 h) was 12. The “number of surviving animals” value ([5]; time 10 h) was 11, the “number of surviving animals” value ([5]; time 11 h) was 11 and the “number of surviving animals” value ([5]; time 12 h) was 11. The “number of surviving animals” value ([5]; time 13 h) was 10, the “number of surviving animals” value ([5]; time 14 h) was 10 and the “number of surviving animals” value ([5]; time 15 h) was 10. For the same substance, the “number of surviving animals” value ([5]; time 16 h) was 9, the “number of surviving animals” value ([5]; time 17 h) was 9 and the “number of surviving animals” value ([5]; time 18 h) was 9. The “number of surviving animals” value ([5]; time 20 h) was 9, the “number of surviving animals” value ([5]; time 22 h) was 8 and the “number of surviving animals” value ([5]; time 24 h) was 8. For the same substance, the “effect on survival rate” value ([5]; 10 mg/kg preventively, 1000 mg/kg APAP, 24 h) was “increases the survival rate in a manner at least equal to the MnTBAP”, the survival rate ([6]; Mangafodipir after acetaminophen (curative protocol)) was “greater than 41%” and the survival rate ([6]; Mangafodipir before acetaminophen (preventive protocol)) was “about 66%”. The “number of surviving animals” value ([6]; Group III preventive, 10 mg/kg i.p. 2 h before 1000 mg/kg APAP, time 0 h) was 12, the “number of surviving animals” value ([6]; Group III preventive, 10 mg/kg i.p. 2 h before 1000 mg/kg APAP, time 6 h) was 12 and the “number of surviving animals” value ([6]; Group III preventive, 10 mg/kg i.p. 2 h before 1000 mg/kg APAP, time 8 h) was 12. The “number of surviving animals” value ([6]; Group III preventive, 10 mg/kg i.p. 2 h before 1000 mg/kg APAP, time 9 h) was 12, the “number of surviving animals” value ([6]; Group III preventive, 10 mg/kg i.p. 2 h before 1000 mg/kg APAP, time 10 h) was 11 and the “number of surviving animals” value ([6]; Group III preventive, 10 mg/kg i.p. 2 h before 1000 mg/kg APAP, time 11 h) was 11. For the same substance, the “number of surviving animals” value ([6]; Group III preventive, 10 mg/kg i.p. 2 h before 1000 mg/kg APAP, time 12 h) was 11, the “number of surviving animals” value ([6]; Group III preventive, 10 mg/kg i.p. 2 h before 1000 mg/kg APAP, time 13 h) was 10 and the “number of surviving animals” value ([6]; Group III preventive, 10 mg/kg i.p. 2 h before 1000 mg/kg APAP, time 14 h) was 10. The “number of surviving animals” value ([6]; Group III preventive, 10 mg/kg i.p. 2 h before 1000 mg/kg APAP, time 15 h) was 10, the “number of surviving animals” value ([6]; Group III preventive, 10 mg/kg i.p. 2 h before 1000 mg/kg APAP, time 16 h) was 9 and the “number of surviving animals” value ([6]; Group III preventive, 10 mg/kg i.p. 2 h before 1000 mg/kg APAP, time 17 h) was 9. The “number of surviving animals” value ([6]; Group III preventive, 10 mg/kg i.p. 2 h before 1000 mg/kg APAP, time 18 h) was 9, the “number of surviving animals” value ([6]; Group III preventive, 10 mg/kg i.p. 2 h before 1000 mg/kg APAP, time 20 h) was 9 and the “number of surviving animals” value ([6]; Group III preventive, 10 mg/kg i.p. 2 h before 1000 mg/kg APAP, time 22 h) was 8. For the same substance, the “number of surviving animals” value ([6]; Group III preventive, 10 mg/kg i.p. 2 h before 1000 mg/kg APAP, time 24 h) was 8, the “number of surviving animals” value ([6]; Group IV curative, 10 mg/kg i.p. 6 h after 1000 mg/kg APAP, time 0 h) was 12 and the “number of surviving animals” value ([6]; Group IV curative, 10 mg/kg i.p. 6 h after 1000 mg/kg APAP, time 6 h) was 12. The “number of surviving animals” value ([6]; Group IV curative, 10 mg/kg i.p. 6 h after 1000 mg/kg APAP, time 8 h) was 11, the “number of surviving animals” value ([6]; Group IV curative, 10 mg/kg i.p. 6 h after 1000 mg/kg APAP, time 9 h) was 11 and the “number of surviving animals” value ([6]; Group IV curative, 10 mg/kg i.p. 6 h after 1000 mg/kg APAP, time 10 h) was 10. For the same substance, the “number of surviving animals” value ([6]; Group IV curative, 10 mg/kg i.p. 6 h after 1000 mg/kg APAP, time 11 h) was 9, the “number of surviving animals” value ([6]; Group IV curative, 10 mg/kg i.p. 6 h after 1000 mg/kg APAP, time 12 h) was 9 and the “number of surviving animals” value ([6]; Group IV curative, 10 mg/kg i.p. 6 h after 1000 mg/kg APAP, time 13 h) was 8. For the same substance, the “number of surviving animals” value ([6]; Group IV curative, 10 mg/kg i.p. 6 h after 1000 mg/kg APAP, time 14 h) was 8, the “number of surviving animals” value ([6]; Group IV curative, 10 mg/kg i.p. 6 h after 1000 mg/kg APAP, time 15 h) was 8 and the “number of surviving animals” value ([6]; Group IV curative, 10 mg/kg i.p. 6 h after 1000 mg/kg APAP, time 16 h) was 7. The “number of surviving animals” value ([6]; Group IV curative, 10 mg/kg i.p. 6 h after 1000 mg/kg APAP, time 17 h) was 7, the “number of surviving animals” value ([6]; Group IV curative, 10 mg/kg i.p. 6 h after 1000 mg/kg APAP, time 18 h) was 7 and the “number of surviving animals” value ([6]; Group IV curative, 10 mg/kg i.p. 6 h after 1000 mg/kg APAP, time 20 h) was 6. The “number of surviving animals” value ([6]; Group IV curative, 10 mg/kg i.p. 6 h after 1000 mg/kg APAP, time 22 h) was 6, the “number of surviving animals” value ([6]; Group IV curative, 10 mg/kg i.p. 6 h after 1000 mg/kg APAP, time 24 h) was 5 and the “rate of reduction of NBT” value ([7]; 1.5 μg of Mangafodipir in reaction mixture, control 0.0302/minute) was 0.01556 min⁻¹. The SOD activity ([7]; 1 U SOD inhibits NBT reduction rate by 50%) was 680 U SOD per milligram of Mangafodipir and the “apoptotic lesions in liver, treated versus not treated” value [8] was “considerably fewer apoptotic lesions”.
